Literature values, collected in patent publication US10995060B2, “Amorphous Trisodium Sacubitril Valsartan and process for its preparation” (priority 2016, dated 2021).
Where a name gives a salt, the structure may show the parent alone. Read-outs that look alike come from different tables or passages of the source.

How the values were obtained:
[1] = for Crystalline state / polymorph stability after exposure: 80° C at 0% RH and 75% RH for 3 days; for Result after loading of the sample at 80° C./0% RH / Result after loading of the sample at 80° C./75% RH: solid form by X-ray powder analysis, 3 days
[2] = crystal powder of Example 11 of WO 200206253

Molecule: CCOC(=O)[C@H](C)C[C@@H](Cc1ccc(-c2ccccc2)cc1)NC(=O)CCC(=O)O [calcium salt of sacubitril]
- Crystalline state / polymorph stability after exposure [1]: did not change
- Result after loading of the sample at 80° C./0% RH [1]: Crystalline sample(form I)I
- Result after loading of the sample at 80° C./75% RH [1]: Crystalline sample(form I)I

Molecule: Hydrate of valsartan disodium salt (2.4 ě 1.0 mole H2O)
- Hygroscopicity [2]: slightly hygroscopic

Molecule: CCOC(=O)[C@H](C)C[C@@H](Cc1ccc(-c2ccccc2)cc1)NC(=O)CCC(=O)[O-].[Na+] [sodium salt of sacubitril]
- Crystalline state / polymorph stability after exposure [1]: high rate of polymorph instability
- Result after loading of the sample at 80° C./0% RH [1]: Semicrystalline phase
- Result after loading of the sample at 80° C./75% RH [1]: Amorphous sample
- Result after loading of the sample at 80° C./75% RH ([1]; listed as sodium salt of Sacubitril): completely amorphous
